Like-named read-outs stand apart in the source and are kept apart here.
Legend:
[1] = target: T1, baculovirus-expressed ALK (Homo sapiens, UniProt Q9UM73); test: ALK Kinase Assay (ELISA-type, time-resolved fluorescence); format: biochemical
T1 construct: host or cells: baculovirus expression system
Method in brief: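 Wells were coated with phospholipase C-γ at 10 μg/mL in Tris-buffered saline. Adding 30 ng/ml enzyme started the reaction, which ran at 37° C for 15 minutes before Eu-N1 PT66 antibody detection. Percent inhibition versus log10 concentration gave IC50 by variable-slope fit.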

[2] = target: T2, c-Met (cytoplasmic domain) (Homo sapiens, UniProt P08581); test: c-Met Kinase Assay (same methods as for ALK, with modifications); format: biochemical
T2 construct: 10 ng/mL c-Met (cytoplasmic domain, Invitrogen Corporation #PV3143); purchased Invitrogen Corporation PV3143
Method in brief: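 Steps: coat wells with PLC-γ (10 μg/mL, Tris-buffered saline); add 10 ng/mL c-Met cytoplasmic domain to initiate; incubate 15 min, 37° C; detect phosphoproduct via Eu-N1 PT66 antibody.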

[3] = ALK kinase inhibition, 1 μM ATP (Km level), read-out: ALK Activity
[4] = c-Met kinase inhibition, 1 μM ATP (Km level), read-out: cMet Activity
[5] = 1 μM ATP (Km level), 30 ng/ml ALK, 37° C., 15 minutes, read-out: ALK Activity (ALK kinase inhibition, IC50 class)
[6] = 1 μM ATP (Km level), 10 ng/mL c-Met, read-out: cMet Activity (c-Met kinase inhibition, IC50 class)
[7] = 1 μM ATP (Km level), read-out: ALK Activity (ALK Kinase Inhibition, IC50)
[8] = 1 μM ATP (Km level), read-out: cMet Activity (c-Met Kinase Inhibition, IC50)
[9] = ALK kinase inhibition, 1 μM ATP, read-out: ALK Activity
[10] = c-Met kinase inhibition, 1 μM ATP, read-out: cMet Activity

T2 sequence (P08581 956-1390 limits assumed): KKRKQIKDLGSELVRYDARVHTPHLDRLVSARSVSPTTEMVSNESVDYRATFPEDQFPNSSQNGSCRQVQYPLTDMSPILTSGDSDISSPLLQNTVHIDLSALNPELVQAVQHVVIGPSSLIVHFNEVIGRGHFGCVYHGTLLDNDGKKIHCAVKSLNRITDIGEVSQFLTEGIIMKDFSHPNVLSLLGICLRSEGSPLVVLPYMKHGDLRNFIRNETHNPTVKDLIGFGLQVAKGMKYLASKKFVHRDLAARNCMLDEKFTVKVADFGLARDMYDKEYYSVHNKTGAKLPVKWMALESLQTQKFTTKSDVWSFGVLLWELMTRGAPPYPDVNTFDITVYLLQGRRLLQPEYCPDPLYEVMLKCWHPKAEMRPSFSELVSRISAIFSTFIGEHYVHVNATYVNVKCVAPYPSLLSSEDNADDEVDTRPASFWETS
T1 sequence (Q9UM73 19-1620): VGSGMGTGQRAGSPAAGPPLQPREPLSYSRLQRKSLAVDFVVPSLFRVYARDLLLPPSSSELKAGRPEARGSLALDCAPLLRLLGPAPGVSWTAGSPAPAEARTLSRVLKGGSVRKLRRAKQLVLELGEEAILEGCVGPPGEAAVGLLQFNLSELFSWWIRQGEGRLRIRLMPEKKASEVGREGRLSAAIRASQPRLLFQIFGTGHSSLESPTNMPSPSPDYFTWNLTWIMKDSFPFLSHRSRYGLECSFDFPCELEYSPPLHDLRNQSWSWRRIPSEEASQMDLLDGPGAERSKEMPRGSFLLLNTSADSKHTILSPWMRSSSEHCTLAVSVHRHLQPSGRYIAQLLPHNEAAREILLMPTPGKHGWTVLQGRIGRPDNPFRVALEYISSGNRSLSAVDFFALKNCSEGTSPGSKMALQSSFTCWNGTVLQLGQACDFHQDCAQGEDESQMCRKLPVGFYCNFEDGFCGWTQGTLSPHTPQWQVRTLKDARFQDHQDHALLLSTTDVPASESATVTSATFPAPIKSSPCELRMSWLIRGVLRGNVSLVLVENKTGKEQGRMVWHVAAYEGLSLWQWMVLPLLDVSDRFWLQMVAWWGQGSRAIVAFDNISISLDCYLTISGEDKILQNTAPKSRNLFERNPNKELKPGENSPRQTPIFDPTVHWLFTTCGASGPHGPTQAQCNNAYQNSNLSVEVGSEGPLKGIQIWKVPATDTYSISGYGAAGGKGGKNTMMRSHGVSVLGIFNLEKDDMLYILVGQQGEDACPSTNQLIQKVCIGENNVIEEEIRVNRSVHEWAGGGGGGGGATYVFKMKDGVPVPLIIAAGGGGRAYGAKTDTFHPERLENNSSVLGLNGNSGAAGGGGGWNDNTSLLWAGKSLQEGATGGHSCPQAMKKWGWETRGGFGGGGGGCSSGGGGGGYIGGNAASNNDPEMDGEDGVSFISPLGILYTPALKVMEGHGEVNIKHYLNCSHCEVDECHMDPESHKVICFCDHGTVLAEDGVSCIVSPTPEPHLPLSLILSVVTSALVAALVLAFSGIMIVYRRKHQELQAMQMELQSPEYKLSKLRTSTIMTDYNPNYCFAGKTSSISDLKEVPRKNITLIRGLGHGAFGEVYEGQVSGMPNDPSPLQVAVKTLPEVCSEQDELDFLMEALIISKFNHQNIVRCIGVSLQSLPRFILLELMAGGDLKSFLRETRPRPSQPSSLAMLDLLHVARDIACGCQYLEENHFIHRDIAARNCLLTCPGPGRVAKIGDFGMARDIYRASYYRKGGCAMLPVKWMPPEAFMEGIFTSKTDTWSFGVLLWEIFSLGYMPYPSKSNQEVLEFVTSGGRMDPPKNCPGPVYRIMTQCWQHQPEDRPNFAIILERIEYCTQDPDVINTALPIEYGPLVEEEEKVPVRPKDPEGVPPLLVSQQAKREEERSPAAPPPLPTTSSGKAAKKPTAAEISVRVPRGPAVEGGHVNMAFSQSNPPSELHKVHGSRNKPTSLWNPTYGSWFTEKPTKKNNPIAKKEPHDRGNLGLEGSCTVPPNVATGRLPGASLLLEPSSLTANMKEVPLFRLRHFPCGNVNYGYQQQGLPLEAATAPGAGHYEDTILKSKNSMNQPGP

| IC50 [1, 7] [µM] | IC50 [2, 8] [µM] | IC50 [1, 9] [µM] | IC50 [2, 10] [µM] | Compound | also measured |
| --- | --- | --- | --- | --- | --- |
| – | – | < 0.1 | < 0.1 | CN1CCN(C2CCN(C3CCc4ccc(Nc5ncc(Cl)c(Nc6c(F)cccc6OCC#N)n5)cc4CC3)CC2)CC1 (stereo not shown) [Example 1483, [2-(5-Chloro-2-{7-[4-(4-methyl-piperazin-1-yl)-piperidin-1-yl]-6,7,8,9-tetrahydro-5H-benzocyclohepten-2-ylamino}-pyrimidin-4-ylamino)-3-fluoro-phenoxy]-acetonitrile] | – |
| – | – | 1 to 10 | 0.1 to 1 | CNC(=O)c1scc(C)c1Nc1nc(Nc2ccc3c(c2)-c2nccn2CCC3)ncc1Cl [Example 1846, 3-[5-Chloro-2-(5,6-dihydro-4H-1,3a-diaza-benzo[e]azulen-9-ylamino)-pyrimidin-4-ylamino]-4-methyl-thiophene-2-carboxylic acid methylamide] | – |
| 0.1 to 1 | > 10 | – | – | Cc1cccnc1-c1ccccc1Nc1nc(Nc2ccc3c(c2)CCC(NCC(F)(F)F)CC3)ncc1Cl (stereo not shown) [Example 657, 5-Chloro-N*4*-[2-(3-methyl-pyridin-2-yl)-phenyl]-N*2*-[7-(2,2,2-trifluoro-ethylamino)-6,7,8,9-tetrahydro-5H-benzocyclohepten-2-yl]-pyrimidine-2,4-diamine] | – |
| < 0.1 | > 10 | – | – | CCN1C(=O)CCCc2c1ccc(Nc1ncc(Cl)c(Nc3ccccc3-c3nccn3C)n1)c2OC [Example 983, 7-{5-Chloro-4-[2-(1-methyl-1H-imidazol-2-yl)-phenylamino]-pyrimidin-2-ylamino}-1-ethyl-6-methoxy-1,3,4,5-tetrahydro-benzo[b]azepin-2-one] | – |
| – | – | < 0.1 | 0.1 to 1 | CNC(=O)c1cccc(Cl)c1Nc1nc(Nc2ccc3c(c2)CN(C)C(=O)CC3)ncc1Cl [Example 1805, 3-Chloro-2-[5-chloro-2-(2-methyl-3-oxo-2,3,4,5-tetrahydro-1H-benzo[c]azepin-8-ylamino)-pyrimidin-4-ylamino]-N-methyl-benzamide] | – |
| – | – | 0.1 to 1 | 0.1 to 1 | CNC(=O)c1ccccc1Nc1nc(Nc2ccc3c(c2)NC(=O)CN(Cc2ccccc2)C3)ncc1Cl [Example 1859, 2-[2-(4-Benzyl-2-oxo-2,3,4,5-tetrahydro-1H-benzo[e][1,4]diazepin-8-ylamino)-5-chloro-pyrimidin-4-ylamino]-N-methyl-benzamide] | – |

The remaining lines, values behind:

| Compound | IC50 [1, 7] [µM] | IC50 [2, 8] [µM] | IC50 [1, 9] [µM] | IC50 [2, 10] [µM] | also measured |
| --- | --- | --- | --- | --- | --- |
| CN1CCNCc2cc(OCC(F)(F)F)c(Nc3ncc(Cl)c(N[C@@H]4CCCC[C@H]4NS(C)(=O)=O)n3)cc21 [Example 497, N-((1R,2R)-2-{5-Chloro-2-[1-methyl-7-(2,2,2-trifluoro-ethoxy)-2,3,4,5-tetrahydro-1H-benzo[e][1,4]diazepin-8-ylamino]-pyrimidin-4-ylamino}-cyclohexyl)-methanesulfonamide] | – | – | – | – | IC50 [1, 3]: 0.1 to 1 µM; IC50 [2, 4]: 1 to 10 µM |
| CNC(=O)c1ccc(NC(C)=O)cc1Nc1nc(Nc2ccc3c(c2)C(C)(C)CCC(=O)N3)ncc1Cl [Example 1244, 4-Acetylamino-2-[5-chloro-2-(5,5-dimethyl-2-oxo-2,3,4,5-tetrahydro-1H-1-benzazepin-7-ylamino)-pyrimidin-4-ylamino]-N-methyl-benzamide] | – | – | – | – | IC50 [1, 5]: 1 to 10 µM; IC50 [2, 6]: 1 to 10 µM |
| CNC(=O)c1ccccc1Nc1nc(Nc2cc3c(cc2Cl)CC2CCC3N2CCOC)ncc1Cl (stereo not shown) [Example 88, 2-{5-Chloro-2-[5-chloro-12-(2-methoxy-ethyl)-12-aza-tricyclo[7.2.1.0*2,7*]dodeca-2(7),3,5-trien-4-ylamino]-pyrimidin-4-ylamino}-N-methyl-benzamide] | – | – | – | – | IC50 [1, 3]: < 0.1 µM; IC50 [2, 4]: 1 to 10 µM |
| COc1ccc(Nc2nc(Nc3cc4c(cc3OC)CCN(CC(=O)N(C)C)CC4)ncc2Cl)c(S(=O)(=O)N(C)C)c1 [Example 820, 2-{7-[5-Chloro-4-(2-dimethylsulfamoyl-4-methoxy-phenylamino)-pyrimidin-2-ylamino]-8-methoxy-1,2,4,5-tetrahydro-benzo[d]azepin-3-yl}-N,N-dimethyl-acetamide] | < 0.1 | > 10 | – | – | – |
| CNC(=O)c1ccsc1Nc1nc(Nc2ccc3c(c2)CCN(CCOC)CC3)ncc1Cl [Example 1484, 2-{5-Chloro-2-[3-(2-methoxy-ethyl)-2,3,4,5-tetrahydro-1H-benzo[d]azepin-7-ylamino]-pyrimidin-4-ylamino}-thiophene-3-carboxylic acid methylamide] | – | – | 0.1 to 1 | 0.1 to 1 | – |
| CNC(=O)c1ccc2c(c1Nc1nc(Nc3ccc4c(c3)NC(=O)CCC4(C)C)ncc1Cl)OCO2 [Example 1481, 4-[5-Chloro-2-(5,5-dimethyl-2-oxo-2,3,4,5-tetrahydro-1H-benzo[b]azepin-8-ylamino)-pyrimidin-4-ylamino]-benzo[1,3]dioxole-5-carboxylic acid methyl amide] | – | – | 0.1 to 1 | 0.1 to 1 | – |
| CCN(CCO)Cc1cc(Nc2nc(Nc3ccc4c(c3OC)CCC(N3CCOCC3)CC4)ncc2Cl)ccc1F (stereo not shown) [Example 740, 2-([5-[5-Chloro-2-(1-methoxy-7-morpholin-4-yl-6,7,8,9-tetrahydro-5H-benzocyclohepten-2-ylamino)-pyrimidin-4-ylamino]-2-fluoro-benzyl}-ethylamino)-ethanol] | < 0.1 | > 10 | – | – | – |
| COCC(COC)N1CCc2cc(Nc3ncc(Cl)c(N[C@@H]4CCCC[C@H]4NS(C)(=O)=O)n3)c(OC)cc2CC1 [Example 816, N-((1R,2R)-2-{5-Chloro-2-[8-methoxy-3-(2-methoxy-1-methoxymethyl-ethyl)-2,3,4,5-tetrahydro-1H-benzo[d]azepin-7-ylamino]-pyrimidin-4-ylamino}-cyclohexyl)-methanesulfonamide] | < 0.1 | > 10 | – | – | – |
| COc1cc2c(cc1Nc1ncc(Cl)c(Nc3cccc(OCC#N)c3)n1)CCOC(=O)N2C [Example 1510, {3-[5-Chloro-2-(3-methoxy-5-methyl-6-oxo-5,6,8,9-tetrahydro-7-oxa-5-aza-benzocyclohepten-2-ylamino)-pyrimidin-4-ylamino]-phenoxy}-acetonitrile] | – | – | < 0.1 | > 10 | – |
| 2-[2-(8-Amino-4H,6H-3,5,10b-triaza-benzo[e]azulen-5-yl)-5-chloro-pyrimidin-4-ylamino]-3-fluoro-N-methyl-benzamide [Example 1467] | – | – | 1 to 10 | 1 to 10 | – |
| CN1C(=O)CCC(C)(C)c2cc(Nc3ncc(Cl)c(N[C@@H]4CCCC[C@H]4NS(C)(=O)=O)n3)ccc21 [Example 385, N-{(1R,2R)-2-[5-Chloro-2-(1,5,5-trimethyl-2-oxo-2,3,4,5-tetrahydro-1H-benzo[b]azepin-7-ylamino)-pyrimidin-4-ylamino]-cyclohexyl}-methanesulfonamide] | – | – | – | – | IC50 [1, 3]: < 0.1 µM; IC50 [2, 4]: 0.1 to 1 µM |
| CCN1CCc2cc(Nc3ncc(Cl)c(Nc4ccc(N5CCN(C)CC5)cc4OC)n3)c(OC)cc2CC1=O [Example 772, 7-{5-Chloro-4-[2-methoxy-4-(4-methyl-piperazin-1-yl)-phenylamino]-pyrimidin-2-ylamino}-3-ethyl-8-methoxy-1,3,4,5-tetrahydro-benzo[d]azepin-2-one] | < 0.1 | > 10 | – | – | – |
| CCN1CCc2cc(Nc3ncc(Cl)c(N[C@H]4[C@@H](C(N)=O)[C@@H]5C=C[C@H]4C5)n3)c(OC)cc2CC1 [Example 773, (1S,2S,3R,4R)-3-[5-Chloro-2-(3-ethyl-8-methoxy-2,3,4,5-tetrahydro-1H-benzo[d]azepin-7-ylamino)-pyrimidin-4-ylamino]-bicyclo[2.2.1]hept-5-ene-2-carboxylic acid amide] | < 0.1 | > 10 | – | – | – |
| CC(=O)c1ccccc1Nc1nc(Nc2ccc3c(c2)CCCC(=O)N3C)ncc1Cl [Example 351, 7-[4-(2-Acetyl-phenylamino)-5-chloro-pyrimidin-2-ylamino]-1-methyl-1,3,4,5-tetrahydro-benzo[b]azepin-2-one] | – | – | – | – | IC50 [1, 3]: < 0.1 µM; IC50 [2, 4]: < 0.1 µM |
| CNC(=O)c1ccc(Nc2nc(Nc3cc4c(cc3OC)CCN(CC(=O)N(C)C)CC4)ncc2Cl)c(OC)c1 [Example 1176, 4-[5-Chloro-2-(3-dimethylcarbamoylmethyl-8-methoxy-2,3,4,5-tetrahydro-1H-benzo[d]azepin-7-ylamino)-pyrimidin-4-ylamino]-3-methoxy-N-methyl-benzamide] | – | – | – | – | IC50 [1, 5]: < 0.1 µM; IC50 [2, 6]: > 10 µM |
| CNC(=O)c1ccccc1Nc1nc(Nc2ccc3c(c2)CCN(CC(C)(C)F)CC3)ncc1Cl [Example 39, 2-{5-Chloro-2-[3-(2-fluoro-2-methyl-propyl)-2,3,4,5-tetrahydro-1H-benzo[d]azepin-7-ylamino]-pyrimidin-4-ylamino}-N-methyl-benzamide] | – | – | – | – | IC50 [1, 3]: < 0.1 µM; IC50 [2, 4]: 0.1 to 1 µM |
| CNC(=O)c1ccccc1Nc1nc(Nc2c(OC)ccc3c2C(=O)N(C)CCC3)ncc1Cl [Example 114, 2-[5-Chloro-2-(8-methoxy-2-methyl-1-oxo-2,3,4,5-tetrahydro-1H-benzo[c]azepin-9-ylamino)-pyrimidin-4-ylamino]-N-methyl-benzamide] | – | – | – | – | IC50 [1, 3]: > 10 µM; IC50 [2, 4]: > 10 µM |
